Where “and” joins values, the source holds several entries; their conditions need not be identical. Identical values can stand only once.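 Values below derive from 48-hour exposures of cells grown in 96-well plates, with endpoints linearly interpolated between the two concentrations bracketing the appropriate inhibition level. Here, GI50 denotes the concentration required for 50% inhibition of growth. TGI: total growth inhibition.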
What was measured:
Assay in all cases: NCI tumour cell line growth inhibition, 48 h
K-562 leukemia = system: K-562 leukemia
UACC-62 melanoma = system: UACC-62 melanoma
RPMI-8226 leukemia = system: RPMI-8226 leukemia
HL-60(TB) leukemia = system: HL-60(TB) leukemia
HT29 colon = system: HT29 colon
SNB-75 CNS = system: SNB-75 CNS
TK-10 renal = system: TK-10 renal
NCI/ADR-RES ovarian = system: NCI/ADR-RES ovarian
HCC-2998 colon = system: HCC-2998 colon
SF-539 CNS = system: SF-539 CNS

Structure (SMILES)	TGI (K-562 leukemia) [µM]	TGI (UACC-62 melanoma)	TGI (RPMI-8226 leukemia)	TGI (HL-60(TB) leukemia) [µM]	TGI (HT29 colon)	TGI (SNB-75 CNS) [µM]	TGI (TK-10 renal)	TGI (NCI/ADR-RES ovarian) [µM]	TGI (HCC-2998 colon)	TGI (SF-539 CNS) [µM]	GI50 (K-562 leukemia) [µM]	GI50 (UACC-62 melanoma) [µM]	GI50 (RPMI-8226 leukemia) [µM]	GI50 (HT29 colon) [µM]	GI50 (TK-10 renal) [µM]	GI50 (SF-539 CNS) [µM]	GI50 (NCI/ADR-RES ovarian) [µM]	GI50 (HCC-2998 colon) [µM]	GI50 (HL-60(TB) leukemia) [µM]	GI50 (SNB-75 CNS) [µM]
CC(=O)O[C@]12CCCCCC1C1(O)C(O)CCC[C@H]12 (stereo not given in full)	> 100	> 100 µM	> 100 µM	> 100	> 100 µM	> 100	> 100 µM													
COC(=O)c1c2c(cc3c1CC1(C3)Cc3cc4c(c(C(=O)OC)c3C1)CCCC4)CCCC2	> 100	> 100 µM	> 100 µM	74.5	> 100 µM		> 100 µM	> 100	> 100 µM	> 100										
COc1cc([N+](=O)[O-])c(OC)cc1-c1nc2sc(Cl)cn2c1/C=N/Nc1ccccn1	> 50	> 50 µM	> 50 µM		> 50 µM		> 50 µM			16.8	> 50	26	30.1	> 50	15.6	9.7				
CC[C@H]1CN2CCc3cc(OC)c(OC)cc3[C@@H]2C[C@@H]1C[C@H]1NCCc2cc(OC)c(OC)cc21	0.0932	0.206 µM and 0.0957 µM	0.151 µM and 0.0175 µM		0.242 µM and 0.168 µM		0.0784 µM and 0.309 µM	0.502	0.0943 µM and 0.0555 µM											
O=c1ccc2cc3ccc4cccc5ccc(c2o1)c3c45	> 100	> 100 µM	> 100 µM	> 100	> 100 µM	50	> 100 µM			21.9										
Cc1c2c(n(CCc3ccc(Cl)cc3)c1C)NN=C(C#N)S2(=O)=O	> 100	> 100 µM	> 100 µM		> 100 µM	> 100	> 100 µM	> 100	> 100 µM	> 100										
O=C(CNc1ccccc1Cl)Nn1c(-c2ccccc2)nc2ccccc2c1=O	97.2	> 10 µM	> 100 µM	65.7	> 10 µM	63	> 100 µM		39.8 µM	43.6										
COc1ccc2cc(-c3ccc(-c4ccc(C(=N)N)s4)s3)ccc2c1			5.06 µM	5.34	3.27 µM	26.6	29.2 µM	4.87	11.7 µM	19.2			2.16	1.72	14.2	3.91	2.29	3.35	1.84	10.4
CCN(CCO)CC1COc2ccccc2O1 (stereo not given)	> 100	> 100 µM		> 100	> 100 µM		> 100 µM	> 100	> 100 µM	> 100										
COc1cc(NS(C)(=O)=O)ccc1N1Cc2cnc3ccc4[nH]c(C)cc1c4c23	> 100	> 100 µM	88.2 µM	> 100	> 100 µM	46.5	> 100 µM	> 100	> 100 µM											
BrC/C=C/C[P+](c1ccccc1)(c1ccccc1)c1ccccc1	> 100	52.3 µM	> 100 µM	39.2		78.3	42 µM		> 100 µM	22.4										
c1ccc2sc(SCSc3nc4ccccc4s3)nc2c1	> 100	> 100 µM	> 100 µM		> 100 µM	> 100	> 100 µM	> 100	> 100 µM											
CC(O)C1CC1(CO)CNc1cc(Cl)nc(N)n1 (stereo not given)	> 100		> 100 µM	> 100	> 100 µM	> 100	> 100 µM	> 100	> 100 µM	> 100										
CCOC(=O)NC(=S)NN(C)C1=NCC(C)(C)S1	> 100	> 100 µM	> 100 µM	> 100		> 100	> 100 µM			> 100										
CSc1c(C#N)c(N)n2c1C(=O)N(c1ccccc1)C2=S	> 100	> 100 µM		> 100	> 100 µM	> 100	> 100 µM	> 100	> 100 µM	> 100										
O=C1C=CC(=O)N1Nc1ccc([N+](=O)[O-])cc1[N+](=O)[O-]	> 66.2	> 100 µM	> 68.7 µM	> 51.5	> 100 µM	> 100	> 100 µM		> 100 µM	> 100										
O=C(N=Nc1cc(Cl)ccc1Cl)NNc1cc(Cl)ccc1Cl	54.6	27 µM	33.8 µM	32.4	37 µM	57.5		61.2	94.1 µM											
C=C[C@@H]1C(CO)=CCC2[C@H]1CCC1C(C)(C)C(=O)CC[C@]21C (stereo not given in full)	> 100	> 100 µM	> 100 µM	> 100	> 100 µM		> 100 µM	> 100	> 100 µM	> 100										
CC(C(=O)n1nnc2ccccc21)N(c1ccccc1)c1ccccc1 (stereo not given)	> 100	> 100 µM	> 100 µM	> 100	> 100 µM	> 100	> 100 µM		> 100 µM	> 100										
Cc1nn(C(=O)Cc2ccccc2)c2c1C(c1ccc(O)cc1)SC(N)=N2 (stereo not given)	> 100	> 100 µM	> 100 µM	> 100	> 100 µM	> 100	> 100 µM		> 100 µM	> 100										
O=C(NCCN1CCOCC1)c1ccc2cc(C(=O)N3CC(CCl)c4ccc([N+](=O)[O-])cc43)[nH]c2c1 (stereo not given)	> 100	43.4 µM	9.09 µM	94.7	24.7 µM		36.6 µM	> 100	29.7 µM	> 100										
CCOc1cc(C2CC(c3ccc(NS(=O)(=O)c4cc([N+](=O)[O-])ccc4C)cc3)=NN2C(=O)c2ccccc2)ccc1O (stereo not given)	> 100		> 100 µM	65.4	> 100 µM	36.6	54.2 µM	> 100		52.8										
CN(C)C(=S)S	> 100	> 100 µM	> 78.9 µM		> 100 µM	> 100	> 100 µM	> 100	59.4 µM	> 100										

Source: PubChem BioAssay (NCI)
